Test results: US20240382452A1, “COMPOSITIONS AND DOSAGE FORMS FOR TOPICAL AND TRANSDERMAL DELIVERY OF ACTIVES AND METHODS OF USE” (priority 2021, published 2024)
“And” between values parts separate entries of the source, which are not always exact repeats. Equal entries are not always repeated.

Columns and labels:
[1] = test system: Oxyuranus scutellatus venom; test: Snake venom study, Oxyuranus scutellatus severe neurotoxicity, topical treatment; format: in vivo; details: individual mice #1-#4; in 80% DMSO/20% ethanol in <50% 2.5%/2.5% lidocaine/prilocaine cream +/- petrolatum cover
Description: Additional studies used historical controls from earlier studies with venom doses from same lots:
Oxyuranus scutellatus severe neurotoxicity and 3-(5′-benzyl-2′-carbamoyl-[1,1′-biphenyl]-3-yl)-2-methylpropanoic acid as the racemic mixture in 80% DMSO/20% ethanol in <50% 2.5%/2.5% lidocaine/prilocaine cream+/−petrolatum cover (1 each).

[2] = Varespladib DMSO/ethanol pad applied to simulated viper bite on the inventor's calf; format: in vivo, human; details: 75 mg/mL in DMSO/ethanol, 2 mL on absorbent pad containing 4% lidocaine; patch applied 24 hours
Protocol: The free-acid of varespladib […] was dissolved at 100 mg/mL in DMSO, then diluted with ethanol to 75 mg/mL and 2 mL applied to an absorbent pad containing 4% lidocaine and applied to a simulated viper bite on the inventor's calf applied by penetration to 1 cm with 18 g hypodermic needles similar in depth to what would be experienced with a large viper's bite.

Question: Which Cessation of breathing [1] does the source give for `CC(Cc1cccc(-c2cc(Cc3ccccc3)ccc2C(N)=O)c1)C(=O)O` (racemic) [3-(5′-benzyl-2′-carbamoyl-[1,1′-biphenyl]-3-yl)-2-methylpropanoic acid] here?
Answer: 64 min and 44 min and 104 min and 111 min

Question: For `CCc1c(C(=O)C(N)=O)c2c(OCC(=O)O)cccc2n1Cc1ccccc1` [varespladib], which “pain, discomfort or redness at wounded area” value [2] is on record?
Answer: no pain, discomfort or redness
